Results: patent US7790896B2, “RNA-selective probes for live cell imaging of nuclear structure and function” (New York University, priority 2006, dated 2010)

Legend:
[1] = test system: Fixed-permeabilized Hela cells; assay: DNase and RNase digest test; type: cell-based, human; conditions: dye 50 μM, 2 hours
Method: Cells were first fixed using cold (−4° C.) pure methanol for 1 minute at ambient temperature. The cell membrane was then permeabilized by immersion in 1% Triton X-100 for 2 minutes. After rinsing with PBS twice, 100 μL of 50 μM dye PBS solution was added to three adjacent wells. Cells were then incubated in this dye PBS solution for 15 minutes in ambient temperature before being rinsed with clean PBS twice. 100 μL clean PBS (as control experiment), 30 μg/mL DNase (Sigma), or 25 μg/mL DNase-Free RNase (GE) was added to the three adjacent wells and incubated at 37° C. in 5% CO2 for 2 hours. Cells were rinsed with clean PBS twice before imaging. For each dye test, the fluorescent images were obtained using equal exposure time for control, DNase and RNase experiments. DAPI (10 μM) in PBS and SYTO®RNASelect (5 μM) in PBS solution were used for dual staining experiments. Duplicate experiments have been tested.
To further confirm that the compounds selectively bind RNA, a deoxyribonuclease (DNase) and ribonuclease (RNase) digest test was performed. In DNase digest, only the DNAs in the cell would be hydrolyzed. By contrast, in RNase digest, only RNAs would be hydrolyzed. Fixed-permeabilized Hela cells were used in this experiment and DAPI and SYTO®RNASelect were used as control dyes (FIG. 6). […] Still, its higher RNA-selective binding in live cell might be due to the complicated in vivo live cell environment, which may preferably direct this dye to nucleoli.

[2] = Fluorescence spectrum in TE buffer of dyes selected from live cell imaging; type: physicochemical; conditions: dye 10 μM in TE buffer
[3] = test system: 3T3 fibroblast cells, 3T3-L1 adipocyte cells, Hela cells and A549 human lung carcinoma cells; assay: Secondary screening: live cell nuclear imaging properties in four cell lines; type: cell-based, mouse; conditions: dye 25 μM
Method: (§1) All cell staining imaging followed the same procedure. Generally, dyes in dry state were first dissolved in DMSO to obtain the stock solution. The stock solutions were then added directly to the cell culture wells to reach the desired concentration. Total DMSO was lower than 0.1%. After adding dyes, cells were incubated at 37° C. in 5% CO2 for 25 minutes. The medium was then removed and cells were rinsed with fresh medium twice. The cells were then imaged at ambient temperature in the medium. Exposure time was kept less than 5 seconds and adjusted to each dye.
The selected compounds from both primary screens (total 88) were resynthesized in large scale and purified. The compounds' live cell nuclear imaging properties were then tested by four cell lines, including two mouse cell lines: 3T3 fibroblast cells and 3T3-L1 adipocyte cells; and two human cancer cell lines: Hela cells and A549 human lung carcinoma cells. Herein, the final dye concentration in each test was decreased to 25 μM and all the experiments were repeated to establish reproducibility. […] Each of the three dyes contained at least one high affinity nucleic acid functional group (Trotta et al., “Solution Structure of DAPI Selectively Bound in the Minor Groove of a DNA T-T Mismatch-Containing Site: NMR and Molecular Dynamics Studies,” Nucleic Acids Res. 26:4706-4713 (1998); Loontiens et al., “Binding Characteristics of Hoechst 33258 with Calf Thymus DNA, Poly[d(A-T)], and d(CCGGAATTCCGG): Multiple Stoichiometries and Determination of Tight Binding with a Wide Spectrum of Site Affinities,” Biochem. 29:9029-9039 (1990); Zipper et al., “Investigations on DNA Intercalation and Surface Binding by SYBR Green I, Its Structure Determination and Methodological Implications,” Nucleic Acid Res. 32:E103 (2004); Glazer et al., “Stable Dye-DNA Intercalation Complexes as Reagents for High-Sensitivity Fluorescence Detection,” Nature 359:859-861 (1992), which are hereby incorporated by reference in their entirety) in building block II such as the terminal secondary amine for F22 and F112, the trimethoxy for E 144, and the indole for E36.

[4] = test system: Hela, A549, 3T3, and 3T3-L1; assay: Optimization of working concentration and imaging properties, live cell staining; type: cell-based, human, mouse; conditions: 20, 10, 5 and 1 μM tested in four cell lines
Method: as §1
In fluorescence microscopic imaging studies, it is always desirable to use as little dye as possible to stain organelles in order to maximize specificity and minimize dye toxicity and cell death. To determine the lowest working concentration of each dye, four different concentrations (20 μM, 10 μM, 5 μM, and 1 μM) were tested in four cell lines (Hela, A549, 3T3, and 3T3-L1). Dyes E36, E144, and F112 were imaged using FITC channel, and F22 was imaged using Cy3 channel. Generally, a quality fluorescence signal for each dye was produced using a concentration of 5 μM for E36, E144, and F22 and 10 μM for F112 (Table 5). It was interesting to observe that compound F22 was brighter in 3T3 cells, and a concentration of 1 μM was sufficient for a clear image (FIG. 4). […] Little photobleaching and no obvious cell morphology or viability changes were observed during the tests.

[5] = Fluorescent properties of free dye solution; type: physicochemical; conditions: TE buffer pH 7.5, dye 5 μM
Method: (§2) The fluorescence spectra data in the primary screening and selected dyes titration assay study was obtained by Gemini XS plate reader. RNA solution was prepared right before the assay experiments to avoid possible degradation and contamination. In the primary screening, 1 mg/mL RNA (type VI from torula yeast) buffer solution was used. Point scans were carried out first using five Ex/Em point sets ([…], 400/500, 450/550, 500/600, 550/650 nm). Spectra scans were then carried out for the selected dyes. Excitation wavelengths were set at 350 nm, 400 nm, 450 nm, 500 nm, and 550 nm and the emission wavelengths were scanned. RNA (16S- and 23S-ribosomal from E. coli) and DNA (salmon testes) titration experiments and quantum yield/extinction coefficient determination for the three best dyes were carried out by the plate reader as well. Excitation λmax obtained from F-2500 Hitachi Fluorophotometer was used. Absorbance wavelength was determined by SpectraMax Plus^384 absorbance plate reader. […] was chosen as standard and 480 nm was used as excitation wavelength in the scanning for quantum yield determination. […] Generally, the λmax (nm) of emission was determined by scanning a fixed excitation first, and the μmax (nm) of excitation was determined by scanning emission spectrum with a fixed μem (nm). The detailed fluorescent properties of three selected dyes including; excitation/emission μmax, the quantum yield and extinction coefficient of both free dye solution and dye-RNA solution were assessed (Table 5).

[6] = test system: RNA (16S- and 23S-ribosomal from E. coli); assay: Fluorescent properties of dye-RNA solution; type: binding; conditions: TE buffer pH 7.5, dye 5 μM, RNA 200 μg/mL
Method: as §2

3T3 cells = assay: Phototoxicity test, MTS assay of irradiated cells; type: cell-based, mouse; conditions: dye 5 μM (Hoechst 1 μM), irradiated 5 minutes, 24 hours incubation
Method: Dye DMSO stock solutions were diluted by fresh medium into working concentration (5 μM). Cells were cultured in 96-well plate for 12 hours before experiments. The cell medium was exchanged with dye medium solutions. Cells were then incubated in at 37° C., in 5% CO2 for 25 minutes before being irradiated by fluorescent light using the appropriate working filter (FITC for E36 and E144; Cy3 for F22) for 5 minutes. The plates were then incubated at 37° C. in 5% CO2 The cell viability was measured by MTS assay after 5 and 24 hours following the cytotoxicity measurement procedure. Duplicated experiments have been tested.
Phototoxicity is also an important factor in evaluating applicability of new fluorescent probes for live cell imaging. […] Nevertheless, it is desirable for the new imaging probes to be as non-phototoxic as possible. To investigate the phototoxicity of the present RNA-selective compounds, cellular viability of irradiated cells using MTS assay was assessed. Cells were incubated with dyes (E36, E144, and F22) in their working concentration (5 μM), and then irradiated with the appropriate filters using the fluorescent microscope (FITC for E36 and E144; Cy3 for F22). While light exposures used for imaging experiments are generally a few seconds long at most, cells were irradiated for 5 minutes for prolonged toxicity measurement. […]

| SMILES | Fluorescence after RNase digest ([1]; 25 μg/mL DNase-Free RNase) | Fluorescence after DNase digest ([1]; 30 μg/mL DNase) | SPECTRUM EM [2] [nm] | SPECTRUM EX [2] [nm] | Live cell nuclear imaging properties (basis of selection) [3] | Optimum Concentration for live cell imaging [4] [µM] | EM (emission λmax), Buffer [5] [nm] | EX (excitation λmax), Buffer [5] [nm] | EM (emission λmax), RNA [6] [nm] | EX (excitation λmax), RNA [6] [nm] | Phototoxicity (3T3 cells) |
| --- | --- | --- | --- | --- | --- | --- | --- | --- | --- | --- | --- |
| COc1ccc2c(ccc(/C=C/c3ccc(N(C)C)cc3[N+](=O)[O-])[n+]2C)c1 [Dye F112] | slight stain of the nucleus | bright nucleolar staining remained | 620 | 500 | selective nucleolar targeting, high fluorescence intensity, low photobleaching, and low cellular toxicity | 10 | 516 | 462 | 514 | 465 |  |
| CN1CCN(c2ccc3[nH]c(-c4ccc5[nH]c(-c6ccc(O)cc6)nc5c4)nc3c2)CC1 [Hoechst 33258] |  |  |  |  |  |  |  |  |  |  | as toxic in 3T3 cells as F22 |
